Assays:
[1] = system: Escherichia coli (ATCC25322); test: In vitro inhibition test against bacteria, Table 5; assay type: cell-based; set-up: key to Inhibitory Activity (stopping power thoroughness and lasting effect): +++ = best; (−) = worst; settings: B diluted by 1000 times
Procedure: (§1) An ectoparasiticide veterinary composition of Example 1 (labelled here as PST22) was tested in an in vitro experimental laboratory to test its efficacy against conventional antibiotics used to control harmful bacteria and fungus that cause untold harm in modern poultry producers. Leading world authorities including the World Health Organisation (WHO) have graded Antimicrobial Resistance (AMR) as a serious global health issue that threatens the prevention and treatment of an increasing range of infections.

[2] = system: Salmonella typhimurium (ATCC 14028); test: In vitro inhibition test against bacteria, Table 7; assay type: cell-based; set-up: key to Inhibitory Activity (stopping power thoroughness and lasting effect): +++ = best; (−) = worst; settings: B diluted by 1000 times
Procedure: as §1

[3] = system: Pseudomonas aeruginosa (ATCC 27853); test: In vitro inhibition test against bacteria, Table 8; assay type: cell-based; set-up: key to Inhibitory Activity (stopping power thoroughness and lasting effect): +++ = best; (−) = worst; settings: B diluted by 1000 times
Procedure: as §1

[4] = system: Saccharomyces cerevisiae (ATCC 9763); test: In vitro inhibition test against fungi, Table 9; assay type: cell-based; set-up: key to Inhibitory Activity (stopping power thoroughness and lasting effect): +++ = best; (−) = worst
Procedure: (§2) An ectoparasiticide veterinary composition of Example 1 (labelled here as PST22) was tested in an in vitro experimental laboratory to test its efficacy against conventional antibiotics used to control harmful bacteria and fungus that cause untold harm in modern poultry producers.

red mite = test: Weekly mortality in broiler houses with red mite, trial house vs control house (Example 3); assay type: in vivo, Dermanyssus gallinae; settings: poultry, over the 28 day period; trial house 4 ml per 10 litres water, control house standard antibiotics
Procedure: Two broiler houses of poultry were used in the trial, a first “trial house” and a second “control house”. Mortality was recorded weekly to determine the red mite impact on the poultry.
In the trial house, the ectoparasiticide veterinary composition of Example 1 was administered to chickens via the in-line water system at a dose of 4 ml per 10 litres of clean water. The control house used the farm's standard medication program involving the administration of antibiotics (Fosfomycin and enrofloxacin). Flock performance monitoring (measuring the number of mortalities not including the standard cull numbers) was recorded weekly in each house over a 28 day period.

[5] = Average live weight and feed conversion of broiler birds, trial house vs control house (Example 4); assay type: in vivo; settings: at 28 days, trial house 1 ml per 1 litre drinking water 6 hours daily, control house antibiotics
Procedure: Two poultry houses were used in the trial: a “trial house” and a “control house”. Each house contained 37000 broiler birds.
In the trial house, the ectoparasiticide veterinary composition of Example 1 was administered each afternoon continuously for 6 hours at a dosage of 1 ml per 1 litre of clean drinking water. The control house used the farm's standard medication program involving the administration of antibiotics (Fosfomycin and enrofloxacin).
Average live weight of the birds in each house was recorded weekly for a 28 day period. At the end of the trial a feed conversion ration was identified.

[6] = system: Staphylococcus aureus (ATCC 6538P); test: In vitro inhibition test against bacteria, Table 6; assay type: cell-based; set-up: key to Inhibitory Activity (stopping power thoroughness and lasting effect): +++ = best; (−) = worst; settings: B diluted by 1000 times
Procedure: as §1

[7] = system: Aspergillus niger (ITDI Ref. No. 3008); test: In vitro inhibition test against fungi, Table 10; assay type: cell-based; set-up: key to Inhibitory Activity (stopping power thoroughness and lasting effect): +++ = best; (−) = worst
Procedure: as §2

[8] = A undiluted (10 mm), Amikacin 30 ug (6 mm)
[9] = A undiluted (10 mm), Amikacin 30 ug (8 mm)
[10] = PST22 - B 1 ml/L (10 mm), Nystatin (10 mm)
[11] = A undiluted (10 mm), Oxacillin 1 ug (6 mm)
[12] = A pure (10 mm), B 1 ml/L (10 mm), Clotrimazole (10 mm)

Question: With `NCC[C@H](O)C(=O)N[C@@H]1C[C@H](N)[C@@H](O[C@H]2O[C@H](CN)[C@@H](O)[C@H](O)[C@H]2O)[C@H](O)[C@H]1O[C@H]1O[C@H](CO)[C@@H](O)[C@H](N)[C@H]1O` [Amikacin] as the molecule, how does the “Average of 3× trials Reactivity Killing Power” value [1, 8] read?
Answer: 16.24 mm

Question: And the “Trial 1” value [1, 8]?
Answer: 16.20 mm

Question: And the “Trial 2” value [1, 8]?
Answer: 16.39 mm

Question: What about the “Trial 3” value [1, 8] of the same molecule?
Answer: 16.12 mm

Question: What about the “Inhibitory Activity (stopping power thoroughness and lasting effect)” value (“Inhibitory Activity” below) ([1]; A undiluted, Amikacin 30 ug) of the same molecule?
Answer: +++

Question: And the “Average of 3× trials Reactivity Killing Power” value [2, 9]?
Answer: 16.30 mm

Question: And the “Trial 1” value [2, 9]?
Answer: 16.12 mm

Question: What about the “Trial 2” value [2, 9] of the same molecule?
Answer: 16.26 mm

Question: And the “Trial 3” value [2, 9]?
Answer: 16.52 mm

Question: What about the “Inhibitory Activity” value ([2]; A undiluted, Amikacin 30 ug) of the same molecule?
Answer: +++

Question: What about the “Average of 3× trials Reactivity Killing Power” value [3, 9] of the same molecule?
Answer: 17.33 mm

Question: What about the “Trial 1” value [3, 9] of the same molecule?
Answer: 17.89 mm

Question: And the “Trial 2” value [3, 9]?
Answer: 17.08 mm

Question: What about the “Trial 3” value [3, 9] of the same molecule?
Answer: 17.02 mm

Question: And the “Inhibitory Activity” value ([3]; A undiluted, Amikacin 30 ug)?
Answer: +++

Question: Which results are given for `C[C@@H]1[C@H](O)[C@@H](C)/C=C/C=C/CC/C=C/C=C/C=C/C=C/C(O[C@H]2O[C@H](C)[C@@H](O)[C@H](N)[C@@H]2O)CC2O[C@](O)(CC(O)C(O)CCC(O)CC(O)CC(O)CC(=O)O[C@H]1C)CC(O)C2C(=O)O` (stereo partly drawn) [Nystatin]?
Answer: Average of 3× trials Reactivity Killing Power [4, 10]: 4 mm; Total Mean Zone of Inhibition [4, 10]: 21.58 mm; Trail 2 [4, 10]: 21.30 mm; Trial 1 [4, 10]: 21.28 mm; Trial 3 [4, 10]: 22.17 mm; Inhibitory Activity (stopping power thoroughness and lasting effect) ([4]; PST22 - B 1 ml/L, Nystatin): +++

Question: For Fosfomycin and enrofloxacin, which mortality % (red mite) is on record?
Answer: 5%

Question: What about the “final average live weight” value [5] of the same molecule?
Answer: 1370 g

Question: Which “Average of 3× trials Reactivity Killing Power” value [6, 11] does the source give for `Cc1onc(-c2ccccc2)c1C(=O)N[C@@H]1C(=O)N2[C@@H]1SC(C)(C)[C@@H]2C(=O)O` [Oxacillin] here?
Answer: 21.25 mm

Question: And the “Trial 1” value [6, 11]?
Answer: 22.82 mm

Question: And the “Trial 2” value [6, 11]?
Answer: 20.20 mm

Question: And the “Trial 3” value [6, 11]?
Answer: 20.72 mm

Question: And the “Inhibitory Activity” value ([6]; A undiluted, Oxacillin 1 ug)?
Answer: +++

Question: For `Clc1ccccc1C(c1ccccc1)(c1ccccc1)n1ccnc1` [Clotrimazole], which “Average of 3× trials (larger the better) Reactivity killing power” value [7, 12] is on record?
Answer: 16.06 mm

Question: What about the “Trial 1” value [7, 12] of the same molecule?
Answer: 15.80 mm

Question: And the “Trial 2” value [7, 12]?
Answer: 16.20 mm

Question: What about the “Trial 3” value [7, 12] of the same molecule?
Answer: 16.18 mm

Question: What about the “Inhibitory Activity” value ([7]; A pure, B 1 ml/L, Clotrimazole) of the same molecule?
Answer: +++

Source: patent publication US20230263853A1, “ECTOPARASITICIDE VETERINARY COMPOSITION” (priority 2020, published 2023)
